In brackets after ≈: the same amount, converted by molar mass.
Experiments:
[1] = test system: Leishmania amazonensis; assay: Leishmanicidal activity against Leishmania amazonensis PH8 promastigotes after 48 hrs by spectrophotometric analysis; assay type: functional, organism-based; settings: PH8, 48 h
[2] = Cytotoxicity against African green monkey Vero cells after 48 hrs by resazurin dye-based spectrophotometric analysis; assay type: cell-based; settings: chlorocebus sabaeus
[3] = Log10 selectivity index, ratio of CC50 for African green monkey Vero cells to IC50 for Leishmania amazonensis PH8 promastigotes; settings: Vero cells versus Leishmania amazonensis PH8 promastigotes
[4] = test system: Leishmania major; assay: Leishmanicidal activity against Leishmania major MHOM/SU/1973/5-ASKH promastigotes after 48 hrs by cell counting method; assay type: functional, organism-based

Structure (SMILES)	IC50 [1] [µg/mL]	CC50 at 48 h [2] [µg/mL]	log10 selectivity index [3]	IC50 [4] [µg/mL]
CC(=O)CCCCCCCCCCCC[C@H]1CC[C@@H](O)[C@@H](C)N1	15.8 (≈ 48.6 µM)	66.7 (≈ 205 µM)	0.62	24.9 (≈ 76.5 µM)
CC(=O)CCCCCCCCCCCC[C@H]1CC[C@@H](OC(C)=O)[C@@H](C)N1	25.9 to 26.3 (≈ 70.6 to 71.6 µM)	255 to 274 (≈ 694 to 744 µM)	0.99 to 1.02	–
CC(=O)CCCCCCCCCC[C@H]1CC[C@@H](OC(C)=O)[C@@H](C)N1	30.2 to 30.7 (≈ 89.1 to 90.5 µM)	357 to 361 (≈ 1050 to 1060 µM)	1.06 to 1.07	–
C[C@@H]1[C@H](O)[C@@H](C)/C=C/C=C/C=C/C=C/C=C/C=C/C=C/[C@H](O[C@@H]2O[C@H](C)[C@@H](O)[C@H](N)[C@@H]2O)C[C@@H]2O[C@](O)(C[C@@H](O)C[C@@H](O)[C@H](O)CC[C@@H](O)C[C@@H](O)CC(=O)O[C@H]1C)C[C@H](O)[C@H]2C(=O)O [AMPHOTERICIN B]	0.29 (≈ 0.314 µM)	–	–	–
CC(=O)CCCCCCCCCC[C@H]1CC[C@@H](O)[C@@H](C)N1 [CASSINE]	25.2 (≈ 84.6 µM)	249 (≈ 838 µM)	0.99	1.6 (≈ 5.38 µM)

Source: ChEMBL document CHEMBL4261645, “Isolation, leishmanicidal evaluation and molecular docking simulations of piperidine alkaloids from Senna spectabilis” (Bioorg Med Chem, 2018)
